Assay results published in BindingDB's records for PubMed 9400006 (Emory University, 1997).

Experiments:
[1] = target: T1, 5-hydroxytryptamine receptor 1A (Rattus norvegicus, UniProt P19327)
T1 sequence (P19327 whole entry): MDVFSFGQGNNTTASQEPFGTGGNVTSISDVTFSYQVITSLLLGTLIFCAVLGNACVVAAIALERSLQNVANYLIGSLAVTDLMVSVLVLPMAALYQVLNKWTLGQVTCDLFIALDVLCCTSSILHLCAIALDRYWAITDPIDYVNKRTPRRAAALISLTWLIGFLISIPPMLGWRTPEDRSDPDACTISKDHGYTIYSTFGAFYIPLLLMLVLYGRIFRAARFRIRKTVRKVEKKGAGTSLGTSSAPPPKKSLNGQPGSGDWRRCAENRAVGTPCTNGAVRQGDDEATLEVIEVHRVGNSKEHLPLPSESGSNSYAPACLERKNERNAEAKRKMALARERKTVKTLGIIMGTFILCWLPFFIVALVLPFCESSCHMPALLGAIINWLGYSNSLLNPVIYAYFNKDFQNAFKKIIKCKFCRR

[2] = target: T2, Alpha-2A adrenergic receptor (Homo sapiens, UniProt P08913)
T2 sequence (P08913 whole entry): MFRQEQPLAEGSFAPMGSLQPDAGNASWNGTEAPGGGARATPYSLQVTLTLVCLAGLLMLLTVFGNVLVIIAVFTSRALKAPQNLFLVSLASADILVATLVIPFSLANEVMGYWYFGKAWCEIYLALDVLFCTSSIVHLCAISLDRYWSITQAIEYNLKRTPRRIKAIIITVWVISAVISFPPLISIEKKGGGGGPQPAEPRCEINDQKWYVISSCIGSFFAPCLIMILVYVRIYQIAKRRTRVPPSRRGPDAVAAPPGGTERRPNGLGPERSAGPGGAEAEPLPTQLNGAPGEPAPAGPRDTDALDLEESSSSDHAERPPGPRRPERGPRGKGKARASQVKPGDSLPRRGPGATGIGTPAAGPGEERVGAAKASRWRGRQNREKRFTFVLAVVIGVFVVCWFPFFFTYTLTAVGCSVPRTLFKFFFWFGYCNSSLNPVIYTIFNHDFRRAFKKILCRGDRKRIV

[3] = target: T3, Muscarinic acetylcholine receptor M2 (Rattus norvegicus, UniProt P10980)
T3 sequence (P10980 whole entry): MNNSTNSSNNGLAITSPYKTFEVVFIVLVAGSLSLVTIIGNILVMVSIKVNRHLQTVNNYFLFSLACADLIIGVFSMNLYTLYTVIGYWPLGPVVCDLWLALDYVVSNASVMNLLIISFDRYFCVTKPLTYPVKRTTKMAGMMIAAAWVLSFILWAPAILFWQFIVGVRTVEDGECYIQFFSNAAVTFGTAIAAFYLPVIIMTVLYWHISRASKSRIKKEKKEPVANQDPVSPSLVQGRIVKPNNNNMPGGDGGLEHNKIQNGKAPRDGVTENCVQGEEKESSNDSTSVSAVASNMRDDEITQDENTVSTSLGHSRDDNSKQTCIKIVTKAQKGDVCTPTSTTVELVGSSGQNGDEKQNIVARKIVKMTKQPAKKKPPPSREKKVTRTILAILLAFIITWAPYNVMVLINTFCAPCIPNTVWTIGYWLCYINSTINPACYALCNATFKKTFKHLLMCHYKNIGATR

[4] = target: Sodium-dependent serotonin transporter (Rattus norvegicus, UniProt P31652)
Sodium-dependent serotonin transporter, sequence (P31652 whole entry): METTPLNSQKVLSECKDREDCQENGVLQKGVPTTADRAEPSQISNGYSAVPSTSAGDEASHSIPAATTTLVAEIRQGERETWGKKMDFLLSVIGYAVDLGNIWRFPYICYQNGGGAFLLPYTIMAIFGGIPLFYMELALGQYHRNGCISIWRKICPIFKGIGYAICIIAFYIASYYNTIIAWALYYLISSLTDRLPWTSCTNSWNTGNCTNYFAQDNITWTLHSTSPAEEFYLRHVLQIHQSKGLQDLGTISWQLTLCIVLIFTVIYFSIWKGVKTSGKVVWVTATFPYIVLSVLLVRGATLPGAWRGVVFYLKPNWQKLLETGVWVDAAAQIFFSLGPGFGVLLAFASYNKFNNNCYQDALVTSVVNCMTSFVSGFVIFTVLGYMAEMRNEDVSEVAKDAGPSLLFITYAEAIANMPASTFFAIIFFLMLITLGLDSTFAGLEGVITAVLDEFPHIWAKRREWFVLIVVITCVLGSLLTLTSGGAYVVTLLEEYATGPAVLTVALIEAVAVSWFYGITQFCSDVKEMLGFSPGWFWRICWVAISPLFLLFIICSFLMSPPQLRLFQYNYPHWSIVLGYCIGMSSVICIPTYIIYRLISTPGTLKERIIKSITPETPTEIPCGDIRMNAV

For `CN(C)CCC=C1c2ccccc2CCc2ccccc21`, the Ki [1] was 0.129 µM, the Ki [2] was 0.114 µM and the Ki [3] was 0.0026 µM.
With `CCc1nn(CCCN2CCN(c3cccc(Cl)c3)CC2)c(=O)n1CCOc1ccccc1` [2-{3-[4-(3-chlorophenyl)piperazin-1-yl]propyl}-5-ethyl-4-(2-phenoxyethyl)-2,4-dihydro-3H-1,2,4-triazol-3-one] the Ki [1] was 0.052 µM and the Ki [3] was 4.57 µM.
For `O=c1n(CCCN2CCN(c3cccc(Cl)c3)CC2)nc2ccccn12` [2-{3-[4-(3-chlorophenyl)piperazin-1-yl]propyl}[1,2,4]triazolo[4,3-a]pyridin-3(2H)-one], the Ki [3] was greater than 10 µM.
In the case of `CNCCCN1c2ccccc2CCc2ccccc21` [Desmethylimipramine], the Ki [3] is reported as 0.037 µM.
`COc1ccc(C(CN(C)C)C2(O)CCCCC2)cc1` (stereo unspecified) [NSC_62923] showed a Ki [1] greater than 10 µM, a Ki [2] greater than 10 µM and a Ki [3] greater than 10 µM.
`CC(O)c1nn(CCCN2CCN(c3ccc(Cl)cc3)CC2)c(=O)n1CCOc1ccccc1` (stereo unspecified) [NSC_127096] showed a Ki [1] of 0.056 µM, a Ki [2] of 0.063 µM and a Ki [4] of 0.612 µM. It also gave a Ki [3] greater than 10 µM.
For `Fc1ccc([C@@H]2CCNC[C@H]2COc2ccc3c(c2)OCO3)cc1` [PAROXETINE], the Ki [1] was greater than 10 µM and the Ki [3] was 0.042 µM.
`O=c1[nH]n(CCCN2CCN(c3cccc(Cl)c3)CC2)c(=O)n1CCOc1ccccc1` [Triazoledione] gave a Ki [1] of 1.37 µM, a Ki [2] of 1.92 µM and a Ki [4] greater than 10 µM. For the same compound, the Ki [3] was greater than 10 µM.
In the case of `CN[C@@H]1CC[C@@H](c2ccc(Cl)c(Cl)c2)c2ccccc21` [[4-(3,4-Dichloro-phenyl)-1,2,3,4-tetrahydro-naphthalen-1-yl]-methyl-amine], the Ki [1] is reported as 3.66 µM and the Ki [3] is reported as 0.232 µM.
For `Clc1cccc(N2CCNCC2)c1` [mCPP], the Ki [1] was 0.016 µM, the Ki [2] was 0.112 µM and the Ki [4] was 0.218 µM. It also gave a Ki [3] of 4.7 µM.
